# Results reported in patent EP4818187A1, “COMPOUND AND USE THEREOF” (Ganzhou Hemay Pharmaceutical, Co., Ltd, priority 2023, dated 2025).
# Key:
# [1] = test system: human ovarian cancer SK-OV-3; assay: Biological Example 6: in vivo xenograft model of human ovarian cancer SK-OV-3; parameters: species or system Balb/c-nu nude mice; settings: SK-OV-3 xenograft, nude mice, 0.8 mg/kg i.v. qw×3
# [2] = test system: human non-small cell lung cancer NCI-H1975; assay: Biological Example 8: in vivo xenograft model of human non-small cell lung cancer NCI-H1975; parameters: species or system Balb/c-nu nude mice; settings: nude mice
# [3] = test system: HCT116 (human colorectal cancer); assay: In vitro inhibitory effect against human tumor cells (MTT); assay type: cell-based; settings: HCT-116, 72 h, 3 days
# Procedure: (§1) Cells were cultured with 5% CO2 at 37°C and saturated humidity until they reached a logarithmic growth phase (usually adherent cells were nearly fully confluent). After removing adherent cells by trypsin/EDTA digestion, the cells were collected for subsequent experiments.
# (§2) The cells were inoculated into a 96-well cell culture plate (hereinafter referred to as the 96-well plate) based on the cell count shown in Table 2, cultured overnight to achieve cell adherence, and then, after different concentrations of the test compound were added, further cultured for a total of 3 days. Finally, the total cell protein in the assay wells was assayed by SRB, or the cell viability was assessed by MTT:
# (§3) 2.2 Assaying cell viability by MTT: the modification is based on the method in the literature (J. Carmichael, W. DeGraff, A. Gazdar et al., Evaluation of a tetrazolium-based semiautomated colorimetric assay: assessment of chemosensitivity testing. Cancer Research. 1987, 47: 936-942). Specific method: For well-adherent cells: the medium was pipetted out, 100 µL of a basal medium containing 0.5 mg/mL MTT (medium free of fetal bovine serum (FBS) and other additives) was added to each well, and culture was continued for additional 3 h. The MTT-containing basal medium was pipetted out, and 100 µL of DMSO was added to each well to dissolve formazan, followed by assay at a wavelength of 490 nm.
# (§4) For poorly-adherent cells: MTT solution was directly added to a concentration of 0.5 mg/mL, culture was continued for additional 3 h, and an equal volume of triple solvent was added to the system to dissolve formazan, followed by assay at a wavelength of 570 nm.
# (§5) 2.3: 1-2 mg of β-glucuronidase was weighed, and dissolved in PBS to prepare 2 mg/mL stock solution. Prior to use, the stock solution was diluted with a complete medium to prepare 12.5 µg/mL enzyme working solution. For assay wells requiring the enzyme, 80 µL of the enzyme working solution was added, with the β-glucuronidase at a concentration of 1 µg/well; and for assay wells not requiring the enzyme, 80 µL of the complete medium was added.
# (§6) 1-3 mg of the test compound was weighed, and dissolved in DMSO to prepare 20 mM stock solution. The stock solution was diluted in a 3-fold gradient with DMSO, then diluted 100-fold with RPMI1640 basal medium to obtain 10× working solutions, with a total of 8 concentrations. 20 µL of the 10× working solutions were add to the assay wells, with the final volume of each well of 200 µL, and with the DMSO at a concentration of 0.1%.
# (§7) 2.4 Calculation of inhibitory activity of compound: the experiment includes a compound test group, a compound-free positive solvent control group (PC), and a negative solvent control group (NC) without cells and the compound. Inhibition rate = [1−(testvalue−NCmean)/(PCmean−NCmean)] × 100% [formula]
# (§8) The mean and SD of the inhibition rate were obtained from replicate assay wells. A curve was plotted with the compound concentrations distributed in a logarithmic form as the abscissa and with the mean inhibition rates as the ordinate, and was fitted with a 4-parameter logistic equation. The compound concentration corresponding to 50% inhibition rate on the curve is the IC50 value. Table 2: Culture medium formulation and cell inoculation concentration for human tumor cell lines
# [4] = test system: NCI-H1975 (human non-small cell lung cancer); assay: as above; assay type: cell-based; settings: NCI-H1975, 72 h, 3 days
# Procedure: as §1, §2, §3, §4, §5, §6, §7, §8
# [5] = test system: SK-OV-3 (human ovarian cancer); assay: as above; assay type: cell-based; settings: SK-OV-3, 72 h, SK-OV-3, MTT, 3 days
# Procedure: as §1, §2, §3, §4, §5, §6, §7, §8
# [6] = test system: Fadu (human pharyngeal squamous cell carcinoma); assay: as above; assay type: cell-based; settings: 72 h, 3 days
# Procedure: as §1, §2, §3, §4, §5, §6, §7, §8
# [7] = test system: NCI-N87 (human gastric cancer cell); assay: as above; assay type: cell-based; settings: NCI-N87, 72 h, 3 days
# Procedure: as §1, §2, §3, §4, §5, §6, §7, §8
# [8] = test system: HepG2 (human liver cancer cell); assay: In vitro inhibitory effect against human tumor cells (SRB); assay type: cell-based; settings: HepG2, 72 h, 3 days
# Procedure: as §1, §2
# (§9) 2.1 Assaying total cell protein by SRB: the modification is based on the method in the literature (V. Vichai and K. Kirtikara. Sulforhodamine B colorimetric assay for cytotoxicity screening. Nature Protocols. 2006, 1: 1112-1116). Specific method: the culture medium was pipetted out from the wells, the cells were fixed with 10% trichloroacetic acid for more than 1 h, and trichloroacetic acid was removed; the cells were washed with H2O, and stained with 0.4% SRB for 15-30 min; after excess SRB was removed, the cells were washed with 1% acetic acid; 100 µl of 10 mM tris(trihydroxymethylaminomethane) was added to dissolve the protein-bound SRB, followed by assay at a wavelength of 570 nm.
# as §5, §6, §7, §8
# [9] = test system: HCC827 (human non-small cell lung cancer); assay: as above; assay type: cell-based; settings: HCC827, 72 h, 3 days
# Procedure: as §1, §2, §9, §5, §6, §7, §8
# [10] = test system: SW620 (human colorectal cancer); assay: as above; assay type: cell-based; settings: SW-620, 72 h, 3 days
# Procedure: as §1, §2, §9, §5, §6, §7, §8
# [11] = test system: MDA-MB-468 (human triple-negative breast cancer); assay: as above; assay type: cell-based; settings: MDA-MB-468, 72 h, MDA-MB-468, SRB, 3 days
# Procedure: as §1, §2, §9, §5, §6, §7, §8
# [12] = test system: A375 (human malignant melanoma); assay: as above; assay type: cell-based; settings: A-375, 72 h, 3 days
# Procedure: as §1, §2, §9, §5, §6, §7, §8
# [13] = test system: 22RV1 (human prostate cancer); assay: as above; assay type: cell-based; settings: 22Rv1, 72 h, 22RV1, SRB, 3 days
# Procedure: as §1, §2, §9, §5, §6, §7, §8
# [14] = test system: BxPC-3 (human pancreatic cancer in situ); assay: In vitro inhibitory effect against human tumor cells (MTT or SRB); assay type: cell-based; settings: BXPC-3, 72 h, BxPC-3, test method printed MTT (head: SRB), 3 days
# Procedure: as §1, §2, §9, §3, §4, §5, §6, §7, §8
# [15] = With addition of βGU (1 µg/well)
structure (smiles),measurement,setting,value
CC[C@H](C)[C@@H]([C@@H](CC(=O)N1CCC[C@H]1[C@H](OC)[C@@H](C)C(=O)N[C@H](C)[C@@H](O)c1ccccc1)OC)N(C)C(=O)[C@@H](NC(=O)[C@H](C(C)C)[N+](C)(C)Cc1ccc(O[C@@H]2O[C@H](C(=O)[O-])[C@@H](O)[C@H](O)[C@H]2O)cc1OCc1cn(CCCCCC(=O)Nc2ccc(-c3ccc(/N=N/c4ccc5c(S(=O)(=O)[O-])cc(S(=O)(=O)[O-])c(N)c5c4O)c(C)c3)cc2C)nn1)C(C)C.[Na+].[Na+] [Example compound 4],Final body weight change (%),[1],4.2%
same,Maximum body weight change (%),[1],"4.8, d17%"
same,Relative volume RTV (x±S.D.),[1],0.79±0.79
same,T/C (%),[1],7.6%
same,Tumor inhibition rate (%),[1],96.0%
same,"Tumor weight (g, x±S.D.)",[1],0.055 ± 0.077 g
same,"Body weight (g, x±S.D.) End",[1]; End,24.2 ± 0.9 g
same,"Body weight (g, x±S.D.) Start",[1]; Start,23.3 ± 0.8 g
same,Final body weight change (%),[2]; 0.8 mg/kg i.v. qw×3,4.9%
same,Maximum body weight change (%),[2]; 0.8 mg/kg i.v. qw×3,"4.9, d24%"
same,Relative volume RTV (x±S.D.),[2]; 0.8 mg/kg i.v. qw×3,0.33±0.17
same,T/C (%),[2]; 0.8 mg/kg i.v. qw×3,2.7%
same,Tumor inhibition rate (%),[2]; 0.8 mg/kg i.v. qw×3,97.3%
same,"Tumor weight (g, x±S.D.)",[2]; 0.8 mg/kg i.v. qw×3,0.072 ± 0.046 g
same,"Body weight (g, x±S.D.) End 24d","[2]; 0.8 mg/kg i.v. qw×3, End 24d",26.0 ± 1.1 g
same,"Body weight (g, x±S.D.) Start","[2]; 0.8 mg/kg i.v. qw×3, Start",24.8 ± 0.8 g
same,IC50,[3]; [15],6.6 nM
same,IC50,[3]; βGU-free,139 nM
same,IC50,[4]; [15],5.5 nM
same,IC50,[4]; βGU-free,86 nM
same,IC50,[5]; [15],5.1 nM
same,IC50,[5]; βGU-free,215 nM
same,IC50,[6]; [15],1.7 nM
same,IC50,[6]; βGU-free,21 nM
same,IC50,[7]; [15],2.3 nM
same,IC50,[7]; βGU-free,58 nM
same,IC50,[8]; [15],4.7 nM
same,IC50,[8]; βGU-free,72 nM
same,IC50,[9]; [15],3.4 nM
same,IC50,[9]; βGU-free,54 nM
same,IC50,[10]; [15],3.4 nM
same,IC50,[10]; βGU-free,67 nM
same,IC50,[11]; [15],0.96 nM
same,IC50,[11]; βGU-free,8.8 nM
same,IC50,[12]; [15],5 nM
same,IC50,[12]; βGU-free,66 nM
same,IC50,[13]; [15],7 nM
same,IC50,[13]; βGU-free,115 nM
same,IC50,[14]; [15],1.9 nM
same,IC50,[14]; βGU-free,44 nM
